{"source": "patent US20230310392A1", "about": "“COMPOSITIONS AND METHODS FOR THE TREATMENT OF EYE CONDITIONS” (Lenz Therapeutics, Inc., priority 2021, published 2023)", "key": {"presbyopic subjects": {"test_system": "presbyopic subjects", "test": "Effect of aceclidine compositions on near and distance vision of presbyopic subjects aged 47 to 67 (Example 1)", "format": "in vivo, human", "settings": "for Effect: duration of effect; for Post Gtt 15″ L Post Dist: left eye distance vision; for Post Gtt 15″ L Post Near: left eye near vision; for Post Gtt 15″ R Post Dist: right eye distance vision; for Post Gtt 15″ R Post Near: right eye near vision", "procedure": "As aceclidine is an […], the clinical effectiveness may vary with different ratios. For the present studies a nearly exact 50:50 ratio of stereoisomers was measured as best determined by polarimetry.\nAfter administration of the composition all subjects experienced an improvement in their near vision that lasted from 7 to 12 hours."}, "subjects": {"test_system": "subjects", "test": "Modulation of aceclidine concentration in a preferred embodiment: stinging, redness, comfort, depth of focus (Example 2)", "format": "in vivo, human", "procedure": "Preferred embodiment: • Aceclidine 1.35% - 1.55% w/v; • Polyoxyl 40 stearate 5.5% w/v; • NaCl 0.037% w/v; • a viscosity agent, preferably CMC 0.80% w/v or an amount of Carbopol® 934 or 940 sufficient to achieve a viscosity of from about 5 to about 35 cps upon topical instillation, such as Carbopol® 940 at a concentration from about 0.09% to about 1.0% w/v; • BAK 0.015% w/v; and • a phosphate, citrate, citrophosphate, or acetate buffer from about 3 to about 10 mM, wherein the pH is from about 4.75 to about 6.0.\nFor 1.35% w/v aceclidine - • Stinging on topical instillation 0.25 / 4.0 (lasting about 2-5 seconds); • Induced redness at 10 minutes: 1.0 to 1.5/4.0; • Induced redness at 30 minutes: 0.0 to 0.25 / 4.0; • Comfort: very high. • Wetting: very high, the eye maintaining sensation of improved wetting for most of a 24-hour period after a single topical instillation. • Depth of Focus distance: excellent. • Depth of Focus near: excellent.\nIn testing the above formulations on several subjects, it was discovered that there is a slight range in clinical effect depending on the concentration of aceclidine, where 1.35% - 1.55% w/v aceclidine is preferred, but for which 1.35% w/v and 1.45% w/v confer the desired benefits on most subjects."}, "[1]": {"test": "Stability of aceclidine in solution at 25° C. and 4° C. by HPLC (Example 6)", "format": "physicochemical", "procedure": "20 samples of the above composition were divided evenly and stored at 25° C. and 4° C. Prior to storage, initial concentrations of aceclidine were measured using […] (“HPLC”). The amount of aceclidine in each solution was calculated by the area under the principal peak compared to a reference solution of aceclidine. Samples were then subject to storage for 3 months. Aceclidine measurements were taken at 1, 2 and 3 months."}, "presbyopic patient": {"test_system": "presbyopic patient", "test": "Compositions containing little or no cycloplegic agent: reading vs baseline at 40 cm, duration, comfort, efficacy index (Example 7)", "format": "in vivo, human", "settings": "1.75% aceclidine, 2.5% mannitol, 0.01% tropicamide, 5% polysorbate 80, no viscosity agent", "from_the_text": "Aceclidine alone causes incidence migraine-like severe ciliary spasm (brow ache) and myopic blur. These effects are inversely correlated to age with subjects age 40 reporting the highest incidence and subject age 60+ reporting the lowest incidence. The addition of a cycloplegic agent reduces ciliary spasms and attendant brow ache, migranious headache, squeezing pressure around eyes or other symptoms of ciliary spasms. […] The addition of 2.5% w/v mannitol however does reduce the myopic effect of aceclidine. Increasing the aceclidine concentration overcomes this reduction in myopic effect seen with the addition of mannitol. […] Even more surprising, the concentration of the cycloplegic agent can be reduced or even eliminated in the presence of mannitol without an increase in ciliary spasm. […]\nFurther and unexpectedly, the addition of a nonionic surfactant increases both the quantitative measure of near vision improvement and the duration. […]\nIn brief, the score is calculated by multiplying the lines of improvement in near visual acuity by the number of hours the improvement lasts. […]"}, "presbyopic subject": {"test_system": "presbyopic subject", "test": "1.75% aceclidine in saline, LogMAR visual acuity of a presbyopic subject (Example 13)", "format": "in vivo, human", "procedure": "A 1.75% aceclidine in saline solution was formulated. One drop was instilled into each eye of a presbyopic subject. The visual acuity of the subject was tested both before and after instillation using a LogMAR chart."}, "[2]": {"test_system": "emmetrope over the age of 45", "test": "Miotic agent with or without tropicamide and carrier: near and distance vision of an emmetrope over the age of 45 (FIG. 2)", "format": "in vivo, human", "from_the_text": "Subject is an emmetrope over the age of 45 with a baseline near vision of 20.100 and baseline distance vision of 20.20. […] […] A proper drug carrier can also have a beneficial effect."}, "pupil": {"test_system": "pupil", "test": "Duration of miosis of muscarinic agonist with brimonidine (description)", "format": "in vivo, human", "procedure": "It is further observed that concentration of brimonidine above 0.15% w/v causes significant trigger of the alpha 1 receptor leading to ischemia and rebound redness, which neutralizes the benefit of the prolonged duration at concentrations from about 0.07% to about 0.15% w/v brimonidine.\nAnother surprising discovery of the present invention, is that when the pH of a composition comprising a muscarinic agonist and brimonidine is below about 6.0 the duration of miosis is prolonged up to 14 hours.\nIn a still further embodiment lower pH is virtually found to cause the formulation to remain on the ocular surface longer, and therefore provide more sustained microvessel constriction and reduced egress of active ingredients."}, "patients": {"test_system": "patients", "settings": "cited from earlier work"}, "subject": {"test_system": "subject", "settings": "in vivo", "quoted_text": "The subject independently instilled 2 drops of the above compositions in each eye and the excess wiped from lids and lashes.\nStinging and Redness are based on a scale of 0 to 4 with 0 being none and 4 being the most severe."}, "[3]": {"settings": "aceclidine 1.1% composition with 0.125% w/v tropicamide"}, "[4]": {"settings": "aceclidine 1.5% composition, object at 15 inches"}}, "note": "Several values for one entry are separate records, joined by “and”; a condition that tells them apart may be missing. Identical values can stand only once."}
{"compound": "CC(=O)OC1CN2CCC1CC2", "note": "(racemic) [aceclidine]", "values": [{"measurement": "Effect", "setting": "presbyopic subjects; [3]", "result": "12.00 h and 7.00 h"}, {"measurement": "Post Gtt 15″ L Post Dist", "setting": "presbyopic subjects; [3]", "result": "20.15 and 20.20"}, {"measurement": "Post Gtt 15″ L Post Near", "setting": "presbyopic subjects; [3]", "result": "20.15 and 20.25"}, {"measurement": "Post Gtt 15″ R Post Dist", "setting": "presbyopic subjects; [3]", "result": "20.15 and 20.20"}, {"measurement": "Post Gtt 15″ R Post Near", "setting": "presbyopic subjects; [3]", "result": "20.20 and 20.25"}, {"measurement": "Effect", "setting": "presbyopic subjects; aceclidine 1.5% composition", "result": "9.00 h and 8.00 h"}, {"measurement": "Post Gtt 15″ L Post Dist", "setting": "presbyopic subjects; aceclidine 1.5% composition", "result": "20.20 and 20.25 and 20.30"}, {"measurement": "Post Gtt 15″ L Post Near", "setting": "presbyopic subjects; [4]", "result": "20.15 and 20.20 and 20.30"}, {"measurement": "Post Gtt 15″ R Post Near", "setting": "presbyopic subjects; [4]", "result": "20.15 and 20.25 and 20.20"}, {"measurement": "Post Gtt 15″ R Post Dist", "setting": "presbyopic subjects; aceclidine 1.5% with 5.5% HPβCD, 0.75% CMC, 0.25% NaCl, 0.01% BAK", "result": "20.20 and 20.25"}, {"measurement": "Comfort", "setting": "subjects; 1.35% w/v aceclidine", "result": "very high"}, {"measurement": "Depth of Focus distance", "setting": "subjects; 1.35% w/v aceclidine", "result": "excellent"}, {"measurement": "Depth of Focus near", "setting": "subjects; 1.35% w/v aceclidine", "result": "excellent"}, {"measurement": "Duration of stinging", "setting": "subjects; 1.35% w/v aceclidine preferred embodiment", "result": "2 to 5", "unit": "s"}, {"measurement": "Stinging on topical instillation", "setting": "subjects; 1.35% w/v aceclidine preferred embodiment, score out of 4.0", "result": 0.25}, {"measurement": "Aceclidine remaining", "setting": "[1]; 4° C., 1 month", "result": 93, "unit": "%"}, {"measurement": "Aceclidine remaining", "setting": "[1]; 4° C., 2 months", "result": 92, "unit": "%"}, {"measurement": "Aceclidine remaining", "setting": "[1]; 4° C., 3 months", "result": 88, "unit": "%"}, {"measurement": "Aceclidine remaining", "setting": "[1]; 4° C., Initial", "result": 100, "unit": "%"}, {"measurement": "Aceclidine remaining", "setting": "[1]; 25° C., 1 month", "result": 92, "unit": "%"}, {"measurement": "Aceclidine remaining", "setting": "[1]; 25° C., 2 months", "result": 75, "unit": "%"}, {"measurement": "Aceclidine remaining", "setting": "[1]; 25° C., 3 months", "result": 50, "unit": "%"}, {"measurement": "Aceclidine remaining", "setting": "[1]; 25° C., Initial", "result": 100, "unit": "%"}, {"measurement": "Near vision improvement", "setting": "presbyopic patient", "result": "up to 3 lines of vision acuity"}, {"measurement": "LogMAR score at 1-meter distance after instillation", "setting": "presbyopic subject; 1.75% aceclidine in saline, one drop each eye", "result": -0.12, "unit": "LogMAR"}, {"measurement": "LogMAR score at 45 centimeters distance after instillation", "setting": "presbyopic subject; 1.75% aceclidine in saline, one drop each eye, 0.50 prior to instillation", "result": 0.22, "unit": "LogMAR"}, {"measurement": "Time at which noticeable degradation in reading distance acuity began", "setting": "presbyopic subject; post instillation", "result": 4, "unit": "h"}, {"measurement": "Time improved reading distance acuity was maintained", "setting": "presbyopic subject; post instillation", "result": 3.5, "unit": "h"}, {"measurement": "Distance vision", "setting": "[2]; 1.55% w/v aceclidine in saline", "result": "without any effect on the baseline distance vision"}, {"measurement": "Near vision", "setting": "[2]; 1.55% w/v aceclidine in saline", "result": 20.40}, {"measurement": "Time period of near vision improvement", "setting": "[2]; 1.55% w/v aceclidine in saline", "result": 6, "unit": "h"}, {"measurement": "Near vision", "setting": "[2]; aceclidine in carrier: 5.5% HPβCD, 0.75% CMC, 0.25% NaCl, 0.01% BAK", "result": "< 20.20"}, {"measurement": "Near vision", "setting": "[2]; aceclidine in the carrier with 0.042% w/v tropicamide", "result": 20.15}, {"measurement": "Duration of miosis / efficacy for near depth of field improvement", "setting": "pupil; aceclidine in a preferred vehicle, pupil sizes of 1.5 to 2.0 mm", "result": "6 to 7", "unit": "h"}, {"measurement": "Duration of miosis", "setting": "pupil; with the addition of brimonidine at 0.07% to 0.08%", "result": "10 to 12", "unit": "h"}]}
{"compound": "Brc1c(NC2=NCCN2)ccc2nccnc12", "note": "[brimonidine]", "values": [{"measurement": "Treated subjects with tachyphylaxis of pupil modulation", "setting": "patients; brimonidine 0.20% w/v topically for night vision, within four weeks of use", "result": "~100", "unit": "%"}, {"measurement": "Patients with rebound redness", "setting": "patients; brimonidine 0.20% w/v twice daily", "result": 25, "unit": "%"}]}
{"compound": "Polysorbate 80", "values": [{"measurement": "Redness 1 hr", "setting": "subject", "result": 0.5}, {"measurement": "Stinging", "setting": "subject", "result": 0.25}]}
{"compound": "poloxamer 407", "values": [{"measurement": "Redness 1 hr", "setting": "subject", "result": 1}, {"measurement": "Stinging", "setting": "subject", "result": 0.5}]}
